Experimental data reported in patent US20230287217A1, “Zwitterionic Cell-Permeant and Water-Soluble Rhodamine Dyes for Quantitative Imaging Applications” (OREGON HEALTH & SCIENCE UNIVERSITY, priority 2020, published 2023).

What was measured:
[1] = UV-Vis absorption and fluorescence spectroscopy (spectral properties in aqueous media / PBS buffer); type: physicochemical; design: Brightness: unit not given here; details: for Brightness / Stokes Shift (nm) / FWHMabs (nm) / λabs (nm) / FWHem (nm) / λem (nm) / ε (M^-1 cm-1) / ϕ: aqueous media; for FWHMabs (nm): absorption band width; for λabs (nm): absorption maximum; for FWHem (nm): emission band width; for λem (nm): emission maximum; for ε (M^-1 cm-1): extinction coefficient from Beer's Law plots; for ϕ: relative quantum yield, TMR and SiTMR as reference
Procedure: UV-Vis and fluorescence spectra were collected on a SpectraMax M5 spectrometer with a Microplate reader (Molecular Devices, Sunnyvale, CA). All absorbance spectra were reference corrected. Extinction coefficient was calculated from Beer’s Law plots of absorbance versus concentration. Relative quantum yields are reported using TMR and SiTMR as reference.

[2] = Absorption and fluorescence stability against solvent polarity changes (dioxane 20-80% in DI water); type: physicochemical; details: compared with base fluorophores TMR and SiTMR (SiR)
Excerpt: FIG. 2D graphs normalized absorption (left) and fluorescence spectra (right) of fluorophores with varied percentages of dioxane (20-80%) in DI water resulting the polarity of the screening solvent systems changing in a gradient manner.
A. general rhodamine fluorophore structures including the classic TMR, SiTMR, and the sulfonated versions. […] This structural change results because the carboxylate anion attacks the central carbon forming a spirolactone, which is both colorless and non-fluorescent. […] C. […] This change in both absorbance and fluorescence intensity was alleviated using our sulfonated versions.

| Compound | Brightness [1] | Stokes Shift (nm) [1] [nm] | FWHMabs (nm) [1] [nm] | λabs (nm) [1] [nm] | FWHem (nm) [1] [nm] | λem (nm) [1] [nm] | ε (M^-1 cm-1) [1] | ϕ [1] | stability of absorbance and fluorescence intensity against solvent polarity changes [2] | brightness compared with the base fluorophore SiTMR ([1]; PBS buffer) |
| --- | --- | --- | --- | --- | --- | --- | --- | --- | --- | --- |
| Cc1ccccc1-c1c2cc/c(=[N+](/C)CCCS(=O)(=O)[O-])cc-2oc2cc(N(C)C)ccc12 [OF550] | 59 | 23 | 33 | 552 | 40 | 575 | 97,300 M^-1 cm-1 | 0.61 | substantially improved stability |  |
| Cc1ccccc1C1=C2C=C/C(=[N+](/C)CCCS(=O)(=O)[O-])C=C2[Si](C)(C)c2cc(N(C)C)ccc21 [OF650] | 55 | 19 | 33 | 649 | 40 | 668 | 125,500 M^-1 cm-1 | 0.44 | substantially improved stability | five time greater |
| CN(C)c1ccc2c(c1)[Si](C)(C)C1=CC(=[N+](C)C)C=CC1=C2c1ccccc1C(=O)O [SiR] | 7 | 20 | 39 | 642 | 41 | 662 | 19,200 M^-1 cm-1 | 0.35 | diminished rapidly |  |
| CN(C)c1ccc2c(-c3cc(C(=O)O)ccc3C(=O)[O-])c3ccc(=[N+](C)C)cc-3oc2c1 [TMRCOOH, 4-carboxy-2-(6-(dimethylamino)-3-(dimethyliminio)-3H-xanthen-9-yl)benzoate] | 49 | 26 | 42 | 550 | 44 | 576 | 83,800 M^-1 cm-1 | 0.58 |  |  |
| CN(C)c1ccc2c(c1)[Si](C)(C)C1=CC(=[N+](C)C)C=CC1=C2c1cc(C(=O)NCCCn2cc(-c3cccc(Nc4ncnc5ccccc45)c3)nn2)ccc1C(=O)[O-] [SiRErl(UnT)] | 5 | 16 | 38 | 654 | 43 | 670 | 24,100 M^-1 cm-1 | 0.19 |  |  |
